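These data come from cells grown in 96-well plates and exposed to compound for 48 hours at five concentrations. GI50 marks 50% less growth. TGI marks complete inhibition of growth.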
Columns and labels:
Assay in all cases: NCI anticancer screen, dose series, 48 h
[1] = system: 786-0 renal
[2] = system: A498 renal
[3] = system: A549 NSCLC
[4] = system: ACHN renal
[5] = system: BT-549 breast
[6] = system: CAKI-1 renal
[7] = system: CCRF-CEM leukemia
[8] = system: COLO 205 colon
[9] = system: DU-145 prostate
[10] = system: EKVX NSCLC
[11] = system: HCC-2998 colon
[12] = system: HCT-116 colon
[13] = system: HCT-15 colon
[14] = system: HL-60(TB) leukemia
[15] = system: HOP-62 NSCLC
[16] = system: HOP-92 NSCLC
[17] = system: HS 578T breast
[18] = system: HT29 colon
[19] = system: IGROV1 ovarian
[20] = system: K-562 leukemia
[21] = system: KM12 colon
[22] = system: LOX IMVI melanoma
[23] = system: M14 melanoma
[24] = system: MALME-3M melanoma
[25] = system: MCF7 breast
[26] = system: MDA-MB-231 breast
[27] = system: MDA-MB-435
[28] = system: MOLT-4 leukemia
[29] = system: NCI-H226 lung
[30] = system: NCI-H23 lung
[31] = system: NCI-H460 lung
[32] = system: NCI-H522 lung
[33] = system: NCI/ADR-RES ovarian
[34] = system: OVCAR-3 ovarian
[35] = system: OVCAR-4 ovarian
[36] = system: OVCAR-5 ovarian
[37] = system: OVCAR-8 ovarian
[38] = system: PC-3 prostate
[39] = system: RPMI-8226 leukemia
[40] = system: RXF 393 renal
[41] = system: SF-268 CNS
[42] = system: SF-295 CNS
[43] = system: SF-539 CNS
[44] = system: SK-MEL-2 melanoma
[45] = system: SK-MEL-28 melanoma
[46] = system: SK-MEL-5 melanoma
[47] = system: SK-OV-3 ovarian
[48] = system: SN12C renal
[49] = system: SNB-19 CNS
[50] = system: SNB-75 CNS
[51] = system: SR leukemia
[52] = system: SW-620 colon
[53] = system: T-47D breast
[54] = system: TK-10 renal
[55] = system: U251 CNS
[56] = system: UACC-257 melanoma
[57] = system: UACC-62 melanoma
[58] = system: UO-31 renal

## C#Cc1cccc(Nc2nc(Cl)nc3cc(NC(=O)CCl)ccc23)c1
[1]
  GI50: 0.449 µM
  TGI: 0.949 µM
[2]
  GI50: 3.13 µM
  TGI: 6.32 µM
[3]
  GI50: 3.66 µM
  TGI: 8.51 µM
[4]
  GI50: 1.48 µM
  TGI: 4.63 µM
[5]
  GI50: 0.531 µM
  TGI: 2.57 µM
[6]
  GI50: 1.85 µM
  TGI: 5.17 µM
[7]
  GI50: 0.588 µM
  TGI: 2.47 µM
[8]
  GI50: 0.586 µM
  TGI: 1.35 µM
[9]
  GI50: 0.806 µM
  TGI: 2.8 µM
[10]
  GI50: 2.12 µM
  TGI: 6.27 µM
[11]
  GI50: 0.7 µM
  TGI: 2.02 µM
[12]
  GI50: 0.449 µM
  TGI: 0.975 µM
[13]
  GI50: 0.592 µM
  TGI: 2.03 µM
[14]
  GI50: 1.42 µM
  TGI: 7.27 µM
[15]
  GI50: 1.99 µM
  TGI: 5.32 µM
[16]
  GI50: 1.23 µM
  TGI: 2.86 µM
[17]
  GI50: 1.43 µM
  TGI: 9.17 µM
[18]
  GI50: 0.766 µM
  TGI: 4.43 µM
[19]
  GI50: 0.5 µM
  TGI: 1.12 µM
[20]
  GI50: 0.792 µM
  TGI: 3.03 µM
[21]
  GI50: 1.13 µM
  TGI: 4.22 µM
[22]
  GI50: 0.41 µM
  TGI: 0.809 µM
[23]
  GI50: 0.764 µM
  TGI: 2.64 µM
[24]
  GI50: 1 µM
  TGI: 2.25 µM
[25]
  GI50: 0.61 µM
  TGI: 3.12 µM
[26]
  GI50: 0.758 µM
  TGI: 2.73 µM
[27]
  GI50: 1.04 µM
  TGI: 3.83 µM
[28]
  GI50: 0.564 µM
  TGI: 1.64 µM
[29]
  GI50: 1.61 µM
  TGI: 5.27 µM
[30]
  GI50: 0.962 µM
  TGI: 3.77 µM
[31]
  GI50: 1.44 µM
  TGI: 4.24 µM
[32]
  GI50: 0.465 µM
  TGI: 0.897 µM
[33]
  GI50: 1.28 µM
  TGI: 13.6 µM
[34]
  GI50: 0.47 µM
  TGI: 0.984 µM
[35]
  GI50: 0.847 µM
  TGI: 2.69 µM
[36]
  GI50: 1.41 µM
  TGI: 4.45 µM
[37]
  GI50: 0.754 µM
  TGI: 2.65 µM
[38]
  GI50: 1.05 µM
  TGI: 4.71 µM
[39]
  GI50: 0.895 µM
  TGI: 4.61 µM
[40]
  GI50: 0.857 µM
  TGI: 3.38 µM
[41]
  GI50: 0.557 µM
  TGI: 1.48 µM
[42]
  GI50: 3.89 µM
  TGI: 7.33 µM
[43]
  GI50: 2.36 µM
  TGI: 5.59 µM
[44]
  GI50: 1.16 µM
  TGI: 3.6 µM
[45]
  GI50: 2.85 µM
  TGI: 6.12 µM
[46]
  GI50: 1.04 µM
  TGI: 3.36 µM
[47]
  GI50: 2.88 µM
  TGI: 6.1 µM
[48]
  GI50: 0.637 µM
  TGI: 1.8 µM
[49]
  GI50: 1.68 µM
  TGI: 4.59 µM
[50]
  GI50: 1.13 µM
  TGI: 5.13 µM
[51]
  GI50: 0.542 µM
  TGI: 1.68 µM
[52]
  GI50: 0.51 µM
  TGI: 1.21 µM
[53]
  GI50: 0.556 µM
  TGI: 1.65 µM
[54]
  GI50: 1.74 µM
  TGI: 5.29 µM
[55]
  GI50: 0.526 µM
  TGI: 1.14 µM
[56]
  GI50: 2.36 µM
  TGI: 5.82 µM
[57]
  GI50: 0.82 µM
  TGI: 3.26 µM
[58]
  GI50: 0.823 µM
  TGI: 3.15 µM

## O=c1[nH]nc(Cc2ccc(Cl)cc2)n1/N=C/c1ccc([N+](=O)[O-])o1
[1]
  TGI: 11.1 µM
[2]
  TGI: 14.1 µM
[3]
  TGI: > 35.4 µM
[4]
  TGI: 11.4 µM
[5]
  TGI: 6.8 µM
[6]
  TGI: > 39 µM
[7]
  TGI: > 37 µM
[8]
  TGI: > 20.1 µM
[9]
  TGI: > 36.7 µM
[10]
  TGI: 13.8 µM
[11]
  TGI: 4.82 µM
[12]
  TGI: 3.2 µM
[13]
  TGI: 11.5 µM
[14]
  TGI: > 26.1 µM
[15]
  TGI: 24.8 µM
[16]
  TGI: > 46.8 µM
[17]
  TGI: 8.24 µM
[18]
  TGI: > 41.1 µM
[19]
  TGI: 11.2 µM
[20]
  TGI: > 31 µM
[21]
  TGI: 6.59 µM
[22]
  TGI: > 24.8 µM
[23]
  TGI: 5.68 µM
[24]
  TGI: 3.31 µM
[25]
  TGI: > 36.8 µM
[26]
  TGI: > 34.7 µM
[27]
  TGI: 11.9 µM
[28]
  TGI: > 26.6 µM
[29]
  TGI: 43.3 µM
[30]
  TGI: 16.8 µM
[31]
  TGI: > 36.2 µM
[32]
  TGI: 4.18 µM
[33]
  TGI: > 35.5 µM
[34]
  TGI: 25.9 µM
[35]
  TGI: 15.9 µM
[36]
  TGI: > 54.6 µM
[37]
  TGI: > 32.2 µM
[38]
  TGI: > 75.1 µM
[39]
  TGI: 6.48 µM
[40]
  TGI: 4.8 µM
[41]
  TGI: 7.93 µM
[42]
  TGI: 16.2 µM
[43]
  TGI: 9.39 µM
[44]
  TGI: 12.4 µM
[45]
  TGI: > 21.9 µM
[46]
  TGI: > 38.5 µM
[47]
  TGI: > 36.3 µM
[48]
  TGI: > 100 µM
[49]
  TGI: 33.3 µM
[50]
  TGI: 31.1 µM
[51]
  TGI: 7.55 µM
[52]
  TGI: > 21.6 µM
[53]
  TGI: > 77.6 µM
[54]
  TGI: 18.5 µM
[55]
  TGI: > 34.4 µM
[56]
  TGI: 9.3 µM
[57]
  TGI: 9.09 µM
[58]
  TGI: > 24 µM

From PubChem BioAssay (NCI)
